{"source": "paper PMC8073777", "about": "“Design, Synthesis, Biological Evaluation and In Silico Studies of Pyrazole-Based NH2-Acyl Oseltamivir Analogues as Potent Neuraminidase Inhibitors” (Pharmaceuticals, 2021)", "data": [{"molecular_target": "A/H3N2 influenza NA (Influenza A virus (H3N2), UniProt Q91IQ5)", "type": "biochemical, A/H3N2 influenza virus (clinical isolate from Hong Kong)", "conditions": "10 µM", "units": {"Inhibitory rate against A/H3N2 influenza NA": "%"}, "values": [{"compound": "CCC(CC)O[C@@H]1C=C(C(=O)O)C[C@H](NC(=O)c2cnn(Cc3ccccc3)c2)[C@H]1NC(C)=O", "note": "[Compound 6a, (3R,4R,5S)-4-acetamido-5-(1-benzyl-1H-pyrazole-4-carboxamido)-3-(pentan-3-yloxy) cyclohex-1-ene-1-carboxylic acid]", "Inhibitory rate against A/H3N2 influenza NA": 32.02}, {"compound": "CCC(CC)O[C@@H]1C=C(C(=O)O)C[C@H](NC(=O)c2cnn(Cc3ccccc3Cl)c2)[C@H]1NC(C)=O", "note": "[Compound 6b, (3R,4R,5S)-4-acetamido-5-(1-(2-chlorobenzyl)-1H-pyrazole-4-carboxamido)-3-(pentan-3-yloxy) cyclohex-1-ene-1-carboxylic acid]", "Inhibitory rate against A/H3N2 influenza NA": 18.88}, {"compound": "CCC(CC)O[C@@H]1C=C(C(=O)O)C[C@H](NC(=O)c2cnn(Cc3cccc(Cl)c3)c2)[C@H]1NC(C)=O", "note": "[Compound 6c, (3R,4R,5S)-4-acetamido-5-(1-(3-chlorobenzyl)-1H-pyrazole-4-carboxamido)-3-(pentan-3-yloxy) cyclohex-1-ene-1-carboxylic acid]", "Inhibitory rate against A/H3N2 influenza NA": 23.88}, {"compound": "CCC(CC)O[C@@H]1C=C(C(=O)O)C[C@H](NC(=O)c2cnn(Cc3cccc([N+](=O)[O-])c3)c2)[C@H]1NC(C)=O", "note": "[Compound 6d, (3R,4R,5S)-4-acetamido-5-(1-(3-nitrobenzyl)-1H-pyrazole-4-carboxamido)-3-(pentan-3-yloxy) cyclohex-1-ene-1-carboxylic acid]", "Inhibitory rate against A/H3N2 influenza NA": 12.26}, {"compound": "CCC(CC)O[C@@H]1C=C(C(=O)O)C[C@H](NC(=O)c2cnn(Cc3cccc(OC)c3)c2)[C@H]1NC(C)=O", "note": "[Compound 6e, (3R,4R,5S)-4-acetamido-5-(1-(3-methoxybenzyl)-1H-pyrazole-4-carboxamido)-3-(pentan-3-yloxy) cyclohex-1-ene-1-carboxylic acid]", "Inhibitory rate against A/H3N2 influenza NA": 23.37}, {"compound": "CCC(CC)O[C@@H]1C=C(C(=O)O)C[C@H](NC(=O)c2cnn(Cc3ccc(OC)cc3)c2)[C@H]1NC(C)=O", "note": "[Compound 6f, (3R,4R,5S)-4-acetamido-5-(1-(4-methoxybenzyl)-1H-pyrazole-4-carboxamido)-3-(pentan-3-yloxy) cyclohex-1-ene-1-carboxylic acid]", "Inhibitory rate against A/H3N2 influenza NA": 26.79}, {"compound": "CCC(CC)O[C@@H]1C=C(C(=O)O)C[C@H](NC(=O)c2cnn(Cc3ccc(C(F)(F)F)cc3)c2)[C@H]1NC(C)=O", "note": "[Compound 6g, (3R,4R,5S)-4-acetamido-3-(pentan-3-yloxy)-5-(1-(4-(trifluoromethyl)benzyl)-1H-pyrazole-4-carboxamido) cyclohex-1-ene-1-carboxylic acid]", "Inhibitory rate against A/H3N2 influenza NA": 21.72}, {"compound": "CCC(CC)O[C@@H]1C=C(C(=O)O)C[C@H](NC(=O)c2cnn(-c3ccccc3C)c2)[C@H]1NC(C)=O", "note": "[Compound 6h, (3R,4R,5S)-4-acetamido-3-(pentan-3-yloxy)-5-(1-(o-tolyl)-1H-pyrazole-4-carboxamido) cyclohex-1-ene-1-carboxylic acid]", "Inhibitory rate against A/H3N2 influenza NA": 38.37}, {"compound": "CCC(CC)O[C@@H]1C=C(C(=O)O)C[C@H](NC(=O)c2cnn(-c3ccc(C)cc3)c2)[C@H]1NC(C)=O", "note": "[Compound 6i, (3R,4R,5S)-4-acetamido-3-(pentan-3-yloxy)-5-(1-(p-tolyl)-1H-pyrazole-4-carboxamido) cyclohex-1-ene-1-carboxylic acid]", "Inhibitory rate against A/H3N2 influenza NA": 52.31}, {"compound": "CCC(CC)O[C@@H]1C=C(C(=O)O)C[C@H](NC(=O)c2cnn(-c3ccc(OC)cc3)c2)[C@H]1NC(C)=O", "note": "[Compound 6j, (3R,4R,5S)-4-acetamido-5-(1-(4-methoxyphenyl)-1H-pyrazole-4-carboxamido)-3-(pentan-3-yloxy) cyclohex-1-ene-1-carboxylic acid]", "Inhibitory rate against A/H3N2 influenza NA": 34.15}, {"compound": "CCC(CC)O[C@@H]1C=C(C(=O)O)C[C@H](NC(=O)c2cnn(-c3ccc(Cl)cc3)c2)[C@H]1NC(C)=O", "note": "[Compound 6k, (3R,4R,5S)-4-acetamido-5-(1-(4-chlorophenyl)-1H-pyrazole-4-carboxamido)-3-(pentan-3-yloxy) cyclohex-1-ene-1-carboxylic acid]", "Inhibitory rate against A/H3N2 influenza NA": 25.67}, {"compound": "CCC(CC)O[C@@H]1C=C(C(=O)O)C[C@H](NC(=O)c2cc(-c3ccccc3)n[nH]2)[C@H]1NC(C)=O", "note": "[Compound 12a, (3R,4R,5S)-4-acetamido-3-(pentan-3-yloxy)-5-(3-phenyl-1H-pyrazole-5-carboxamido) cyclohex-1-ene-1-carboxylic acid]", "Inhibitory rate against A/H3N2 influenza NA": 42.81}, {"compound": "CCC(CC)O[C@@H]1C=C(C(=O)O)C[C@H](NC(=O)c2cc(-c3ccc(Cl)cc3)n[nH]2)[C@H]1NC(C)=O", "note": "[Compound 12b, (3R,4R,5S)-4-acetamido-5-(3-(4-chlorophenyl)-1H-pyrazole-5-carboxamido)-3-(pentan-3-yloxy) cyclohex-1-ene-1-carboxylic acid]", "Inhibitory rate against A/H3N2 influenza NA": 50.43}, {"compound": "CCC(CC)O[C@@H]1C=C(C(=O)O)C[C@H](NC(=O)c2cc(-c3ccc(F)cc3)n[nH]2)[C@H]1NC(C)=O", "note": "[Compound 12c, (3R,4R,5S)-4-acetamido-5-(3-(4-fluorophenyl)-1H-pyrazole-5-carboxamido)-3-(pentan-3-yloxy) cyclohex-1-ene-1-carboxylic acid]", "Inhibitory rate against A/H3N2 influenza NA": 56.45}, {"compound": "CCC(CC)O[C@@H]1C=C(C(=O)O)C[C@H](NC(=O)c2cc(-c3ccc(C(F)(F)F)cc3)n[nH]2)[C@H]1NC(C)=O", "note": "[Compound 12d, (3R,4R,5S)-4-acetamido-3-(pentan-3-yloxy)-5-(3-(4-(trifluoromethyl)phenyl)-1H-pyrazole-5-carboxamido) cyclohex-1-ene-1-carboxylic acid]", "Inhibitory rate against A/H3N2 influenza NA": 46.7}, {"compound": "CCC(CC)O[C@@H]1C=C(C(=O)O)C[C@H](NC(=O)c2cc(-c3ccc(OC)cc3)n[nH]2)[C@H]1NC(C)=O", "note": "[Compound 12e, (3R,4R,5S)-4-acetamido-5-(3-(4-methoxyphenyl)-1H-pyrazole-5-carboxamido)-3-(pentan-3-yloxy) cyclohex-1-ene-1-carboxylic acid]", "Inhibitory rate against A/H3N2 influenza NA": 42.02}, {"compound": "CCC(CC)O[C@@H]1C=C(C(=O)O)C[C@H](NC(=O)c2cc(-c3cccs3)n[nH]2)[C@H]1NC(C)=O", "note": "[Compound 12f, (3R,4R,5S)-4-acetamido-3-(pentan-3-yloxy)-5-(3-(thiophen-2-yl)-1H-pyrazole-5-carboxamido) cyclohex-1-ene-1-carboxylic acid]", "Inhibitory rate against A/H3N2 influenza NA": 40.02}, {"compound": "CCC(CC)O[C@@H]1C=C(C(=O)O)C[C@H](NC(=O)c2cc(-c3ccc(Cl)cc3)nn2CC2CC2)[C@H]1NC(C)=O", "note": "[Compound 16a, (3R,4R,5S)-4-acetamido-5-(3-(4-chlorophenyl)-1-(cyclopropylmethyl)-1H-pyrazole-5-carboxamido)-3-(pentan-3-yloxy) cyclohex-1-ene-1-carboxylic acid]", "Inhibitory rate against A/H3N2 influenza NA": 31.50}, {"compound": "CCC(CC)O[C@@H]1C=C(C(=O)O)C[C@H](NC(=O)c2cc(-c3ccc(Cl)cc3)nn2CC2CCC2)[C@H]1NC(C)=O", "note": "[Compound 16b, (3R,4R,5S)-4-acetamido-5-(3-(4-chlorophenyl)-1-(cyclobutylmethyl)-1H-pyrazole-5-carboxamido)-3-(pentan-3-yloxy) cyclohex-1-ene-1-carboxylic acid]", "Inhibitory rate against A/H3N2 influenza NA": 39.81}, {"compound": "CCC(CC)O[C@@H]1C=C(C(=O)O)C[C@H](NC(=O)c2cc(-c3ccc(Cl)cc3)nn2CC2CCCCC2)[C@H]1NC(C)=O", "note": "[Compound 16c, (3R,4R,5S)-4-acetamido-5-(3-(4-chlorophenyl)-1-(cyclohexylmethyl)-1H-pyrazole-5-carboxamido)-3-(pentan-3-yloxy) cyclohex-1-ene-1-carboxylic acid]", "Inhibitory rate against A/H3N2 influenza NA": 48.50}, {"compound": "CCC(CC)O[C@@H]1C=C(C(=O)O)C[C@H](NC(=O)c2cc(C3CC3)n(-c3ccccc3)n2)[C@H]1NC(C)=O", "note": "[Compound 24a, (3R,4R,5S)-4-acetamido-5-(5-cyclopropyl-1-phenyl-1H-pyrazole-3-carboxamido)-3-(pentan-3-yloxy) cyclohex-1-ene-1-carboxylic acid]", "Inhibitory rate against A/H3N2 influenza NA": 30.57}, {"compound": "CCC(CC)O[C@@H]1C=C(C(=O)O)C[C@H](NC(=O)c2cc(C3CC3)n(-c3ccccc3C)n2)[C@H]1NC(C)=O", "note": "[Compound 24b, (3R,4R,5S)-4-acetamido-5-(5-cyclopropyl-1-(o-tolyl)-1H-pyrazole-3-carboxamido)-3-(pentan-3-yloxy) cyclohex-1-ene-1-carboxylic acid]", "Inhibitory rate against A/H3N2 influenza NA": 60.91}, {"compound": "CCC(CC)O[C@@H]1C=C(C(=O)O)C[C@H](NC(=O)c2cc(C3CC3)n(-c3cccc(C)c3)n2)[C@H]1NC(C)=O", "note": "[Compound 24c, (3R,4R,5S)-4-acetamido-5-(5-cyclopropyl-1-(m-tolyl)-1H-pyrazole-3-carboxamido)-3-(pentan-3-yloxy) cyclohex-1-ene-1-carboxylic acid]", "Inhibitory rate against A/H3N2 influenza NA": 34.75}, {"compound": "CCC(CC)O[C@@H]1C=C(C(=O)O)C[C@H](NC(=O)c2cc(C3CC3)n(-c3ccc(Br)cc3)n2)[C@H]1NC(C)=O", "note": "[Compound 24d, (3R,4R,5S)-4-acetamido-5-(1-(4-bromophenyl)-5-cyclopropyl-1H-pyrazole-3-carboxamido)-3-(pentan-3-yloxy) cyclohex-1-ene-1-carboxylic acid]", "Inhibitory rate against A/H3N2 influenza NA": 42.68}, {"compound": "CCC(CC)O[C@@H]1C=C(C(=O)O)C[C@H](NC(=O)c2cc(C3CC3)n(-c3ccc(C(F)(F)F)cc3)n2)[C@H]1NC(C)=O", "note": "[Compound 24e, (3R,4R,5S)-4-acetamido-5-(5-cyclopropyl-1-(4-(trifluoromethyl)phenyl)-1H-pyrazole-3-carboxamido)-3-(pentan-3-yloxy) cyclohex-1-ene-1-carboxylic acid]", "Inhibitory rate against A/H3N2 influenza NA": 44.47}, {"compound": "CCC(CC)O[C@@H]1C=C(C(=O)O)C[C@H](NC(=O)c2cc(C3CC3)nn2-c2ccccc2)[C@H]1NC(C)=O", "note": "[Compound 26a, (3R,4R,5S)-4-acetamido-5-(3-cyclopropyl-1-phenyl-1H-pyrazole-5-carboxamido)-3-(pentan-3-yloxy) cyclohex-1-ene-1-carboxylic acid]", "Inhibitory rate against A/H3N2 influenza NA": 30.41}]}]}
